In article PMC8286840, “Identifying SARS-CoV-2 antiviral compounds by screening for small molecule inhibitors of Nsp3 papain-like protease” (Biochemical Journal, 2021) one finds remaining activity data, which are given here for 28 molecules.

Experiment [1] deals with T1, SARS-CoV-2 PLpro (nsp3 1564–1878) (Severe acute respiratory syndrome coronavirus 2, UniProt P0DTD1). Briefly: biochemical. On the set-up: FRET-quenched peptide (Pro3) cleavage by PLpro, 10 min pre-incubation, slope over 20 min, normalised to no-compound control.
In experiment [2] the target is T1, SARS-CoV-2 PLpro (nsp3 1564–1878). Briefly: biochemical. Also on record: FRET-quenched peptide (Pro3) cleavage by PLpro, 10 min pre-incubation, slope over 20 min, normalised to no-compound control. The source holds these as a separate data set.
Setting [3] is: read-out: % of control remaining.

The structures appear in SMILES notation. Structures can show the parent of a compound that is named as a salt. Where two headings read alike, the source gives them in different places.

Regarding `CCCCC[C@H](O)CC(=O)CCc1ccc(O)c(OC)c1` [[6]-Gingerol], the remaining activity at 1.25 µM in experiment [1] (Well no.=6162, low concentration screen, read-out: % of control remaining) was 96.6%. Besides, the remaining activity at 3.75 µM in experiment [2] (Well no.=6162, high concentration screen, read-out: % of control remaining) came to 99.6%.

In the case of `CN[C@@H](C)C(=O)N[C@H]1CCCC[C@H]2CC[C@@H](C(=O)N[C@@H](c3ccccc3)c3cn(CCCCc4ccc(CCCCn5cc([C@@H](NC(=O)[C@@H]6CC[C@@H]7CCCC[C@H](NC(=O)[C@H](C)NC)C(=O)N76)c6ccccc6)nn5)cc4)nn3)N2C1=O` [SM-164 Hydrochloride], the remaining activity at 1.25 µM in experiment [1] (Well no.=7030, low concentration screen, read-out: % of control remaining) was determined as 105%; in experiment [1] (Well no.=8556, low concentration screen, read-out: % of control remaining) it was 104%. Further, the remaining activity at 3.75 µM in experiment [2] (Well no.=7030, high concentration screen, read-out: % of control remaining) came to 102%; in experiment [2] (Well no.=8556, high concentration screen, read-out: % of control remaining), 99.5%.

For the molecule `CCOc1ccn(-c2ccc(F)cc2)c(=O)c1C(=O)Nc1ccc(Oc2ccnc(N)c2Cl)c(F)c1` [BMS 777607], the remaining activity at 1.25 µM in experiment [1] (Well no.=5297, low concentration screen, read-out: % of control remaining) came out at 94.1%. In experiment [2] (Well no.=5297, high concentration screen, read-out: % of control remaining), the remaining activity at 3.75 µM came to 90.4%.

On to `NC(=O)c1cccc(-c2cccc(OC(=O)NC3CCCCC3)c2)c1` [URB597], for which the remaining activity at 1.25 µM in experiment [1] (Well no.=5889, low concentration screen, read-out: % of control remaining) was found to be 109%; in experiment [1] (Well no.=8102, low concentration screen, read-out: % of control remaining) it was 95.4%. Also, the remaining activity at 3.75 µM was determined as 109% in experiment [2] (Well no.=5889, high concentration screen, read-out: % of control remaining) and 94.7% in experiment [2] (Well no.=8102, high concentration screen, read-out: % of control remaining).

As to `CN(N=O)c1ccc(O)c(O)c1` [Me-3,4-dephostatin], the remaining activity at 1.25 µM in experiment [1] (Well no.=1131, low concentration screen, read-out: % of control remaining) was determined as 95.2%. Also, in experiment [2] (Well no.=1131, high concentration screen, read-out: % of control remaining), the remaining activity at 3.75 µM is 91.3%.

For the molecule `CCCn1c(C)c(C(=O)c2cccc3ccccc23)c2ccccc21` [JWH-015], the remaining activity at 1.25 µM in experiment [1] (setting [3]) was 92.6%. The remaining activity at 3.75 µM in experiment [2] (setting [3]) amounted to 93.1%.

Take `COC(=O)[C@H](Cc1c[nH]c2ccccc12)N(Cc1ccccc1)Cc1ccccc1` [TRPM8 antagonist 2]: the remaining activity at 1.25 µM in experiment [1] (Well no.=7732, low concentration screen, read-out: % of control remaining) came out at 95.3%. The remaining activity at 3.75 µM in experiment [2] (Well no.=7732, high concentration screen, read-out: % of control remaining) stood at 97.5%.

`CCOc1cc(CC(=O)N[C@@H](CC(C)C)c2ccccc2N2CCCCC2)ccc1C(=O)O` [Repaglinide]: in experiment [1] (Well no.=4817, low concentration screen, read-out: % of control remaining), the remaining activity at 1.25 µM stood at 101%. The remaining activity at 3.75 µM in experiment [2] (Well no.=4817, high concentration screen, read-out: % of control remaining) came out at 95.8%.

Turning to `CCCCNC(=O)NS(=O)(=O)c1ccc(C)cc1` [Tolbutamide], the remaining activity at 1.25 µM in experiment [1] (Well no.=1329, low concentration screen, read-out: % of control remaining) was 107%; in experiment [1] (Well no.=1601, low concentration screen, read-out: % of control remaining), 99.7%. In addition, the remaining activity at 3.75 µM in experiment [2] (Well no.=1329, high concentration screen, read-out: % of control remaining) was 104%; in experiment [2] (Well no.=1601, high concentration screen, read-out: % of control remaining), 97.6%.

As for `Nc1ccncc1` [4-Aminopyridine], in experiment [1] (read-out: % of control remaining, Well no.=149, low concentration screen), the remaining activity at 1.25 µM came to 104%. In addition, the remaining activity at 3.75 µM in experiment [2] (read-out: % of control remaining, Well no.=149, high concentration screen) came to 104%.

Regarding `Cc1[nH]c(/C=C2\C(=O)Nc3ccccc32)c(C)c1CCC(=O)O` [TSU-68 (SU6668)], the remaining activity at 1.25 µM in experiment [1] (Well no.=4899, low concentration screen, read-out: % of control remaining) was 99.4%. Also, the remaining activity at 3.75 µM in experiment [2] (Well no.=4899, high concentration screen, read-out: % of control remaining) came to 95.8%.

Consider `O=C1NC(=O)C(c2ccccc2)(c2ccccc2)N1` [5,5-Diphenylhydantoin], for which, in experiment [1] (Well no.=641, low concentration screen, read-out: % of control remaining), the remaining activity at 1.25 µM was 99.8%. In addition, the remaining activity at 3.75 µM in experiment [2] (Well no.=641, high concentration screen, read-out: % of control remaining) came to 98.3%.

In the case of `Cn1ccc2cc3c(cc21)CCN3C(=O)Nc1cccnc1` [SB 206553 hydrochloride], the remaining activity at 1.25 µM in experiment [1] (Well no.=1375, low concentration screen, read-out: % of control remaining) worked out at 99.8%. The remaining activity at 3.75 µM in experiment [2] (Well no.=1375, high concentration screen, read-out: % of control remaining) stood at 101%.

Regarding `O=C1c2cc([N+](=O)[O-])ccc2-n2c1nc1ccccc1c2=O` [GNF-PF-3777], the remaining activity at 1.25 µM in experiment [1] (Well no.=8414, low concentration screen, read-out: % of control remaining) stood at 88.1%; in experiment [1] (Well no.=8695, low concentration screen, read-out: % of control remaining), 103%. Further, the remaining activity at 3.75 µM in experiment [2] (Well no.=8414, high concentration screen, read-out: % of control remaining) was 78.5%; in experiment [2] (Well no.=8695, high concentration screen, read-out: % of control remaining), 99%.

Consider `Cc1ccccc1C(=O)Nc1ccc(C(=O)N2CCCC(O)c3cc(Cl)ccc32)c(C)c1` (stereo not drawn) [Tolvaptan], for which the remaining activity at 1.25 µM came to 102% in experiment [1] (Well no.=7517, low concentration screen, read-out: % of control remaining) and 97.7% in experiment [1] (Well no.=8388, low concentration screen, read-out: % of control remaining). The remaining activity at 3.75 µM was found to be 95.6% in experiment [2] (Well no.=7517, high concentration screen, read-out: % of control remaining) and 97.5% in experiment [2] (Well no.=8388, high concentration screen, read-out: % of control remaining).

With `C[C@](N)(Cc1ccc(O)c(O)c1)C(=O)O` [L-alpha-Methyl DOPA], the remaining activity at 1.25 µM in experiment [1] (Well no.=1039, low concentration screen, read-out: % of control remaining) stood at 97.7%. Also, the remaining activity at 3.75 µM in experiment [2] (Well no.=1039, high concentration screen, read-out: % of control remaining) was 98.3%.

For the molecule `C[C@H]1C[C@H]2[C@@H]3CCC4=CC(=O)C=C[C@]4(C)[C@@]3(F)[C@@H](O)C[C@]2(C)[C@@]1(O)C(=O)CO` [Betamethasone], the remaining activity at 1.25 µM was 97.7% in experiment [1] (read-out: % of control remaining, Well no.=271, low concentration screen); 93.5% in experiment [1] (read-out: % of control remaining, Well no.=2171, low concentration screen); 94.8% in experiment [1] (read-out: % of control remaining, Well no.=6566, low concentration screen). For the same molecule, the remaining activity at 3.75 µM amounted to 95.6% in experiment [2] (read-out: % of control remaining, Well no.=271, high concentration screen); 93.7% in experiment [2] (read-out: % of control remaining, Well no.=2171, high concentration screen); 95.4% in experiment [2] (read-out: % of control remaining, Well no.=6566, high concentration screen).

Consider `CC(C)Cc1ccc(C(C)C(=O)O)cc1` (racemic), for which the remaining activity at 1.25 µM in experiment [1] (Well no.=1011, low concentration screen, read-out: % of control remaining) is 100%. The remaining activity at 3.75 µM in experiment [2] (Well no.=1011, high concentration screen, read-out: % of control remaining) is 99.6%.

With `O=C(c1cc(O)c(O)c([N+](=O)[O-])c1)c1ccccc1F` [Ro 41-0960], the remaining activity at 1.25 µM in experiment [1] (Well no.=1162, low concentration screen, read-out: % of control remaining) is 102%. Further, the remaining activity at 3.75 µM in experiment [2] (Well no.=1162, high concentration screen, read-out: % of control remaining) amounted to 104%.

As for `CC(=O)Oc1ccccc1C(=O)O` [Acetylsalicylic acid], the remaining activity at 1.25 µM in experiment [1] (Well no.=161, low concentration screen, read-out: % of control remaining) was determined as 101%; in experiment [1] (Well no.=2067, low concentration screen, read-out: % of control remaining), 102%. In addition, the remaining activity at 3.75 µM in experiment [2] (Well no.=161, high concentration screen, read-out: % of control remaining) was 97.3%; in experiment [2] (Well no.=2067, high concentration screen, read-out: % of control remaining), 103%.

For `O=C1O/C(=C/Br)CCC1c1cccc2ccccc12` (stereo not drawn) [Bromoenol lactone], the remaining activity at 1.25 µM in experiment [1] (Well no.=310, low concentration screen, read-out: % of control remaining) stood at 93%. In addition, the remaining activity at 3.75 µM in experiment [2] (Well no.=310, high concentration screen, read-out: % of control remaining) was 96.9%.

Consider `NNc1nncc2ccccc12` [Hydralazine hydrochloride], for which, in experiment [1] (Well no.=560, low concentration screen, read-out: % of control remaining), the remaining activity at 1.25 µM turned out to be 95.6%. The remaining activity at 3.75 µM in experiment [2] (Well no.=560, high concentration screen, read-out: % of control remaining) is 95.5%.

Regarding `CCCCCOc1ccccc1C(O)CC#CCCCC(=O)OC` (stereo not drawn) [CAY10514], the remaining activity at 1.25 µM in experiment [1] (Well no.=4293, low concentration screen, read-out: % of control remaining) was found to be 100%. The remaining activity at 3.75 µM in experiment [2] (Well no.=4293, high concentration screen, read-out: % of control remaining) was determined as 98.7%.

For `O=C(/C=C/c1ccc(O)c(O)c1)O[C@@H]1C[C@](O)(C(=O)O)C[C@@H](O)[C@H]1O` [Chlorogenic acid], in experiment [1] (Well no.=3510, low concentration screen, read-out: % of control remaining), the remaining activity at 1.25 µM came to 103%. For the same molecule, the remaining activity at 3.75 µM in experiment [2] (Well no.=3510, high concentration screen, read-out: % of control remaining) came to 103%.

For `CC(C(=O)O)c1ccc(CC2CCCC2=O)cc1` (stereo not drawn) [loxoprofen], the remaining activity at 1.25 µM in experiment [1] (Well no.=927, low concentration screen, read-out: % of control remaining) turned out to be 104%. Moreover, in experiment [2] (Well no.=927, high concentration screen, read-out: % of control remaining), the remaining activity at 3.75 µM came to 105%.

As to `Nc1ncnc2c1ncn2C1CCCO1` (stereo not drawn) [SQ 22536], in experiment [1] (Well no.=1517, low concentration screen, read-out: % of control remaining), the remaining activity at 1.25 µM came to 98.3%. Besides, the remaining activity at 3.75 µM in experiment [2] (Well no.=1517, high concentration screen, read-out: % of control remaining) came to 99.9%.

For `Cc1cc(NC(=O)NCCN2CCC(O)(Cc3ccccc3)CC2)c2ccccc2n1` [Palosuran], the remaining activity at 1.25 µM in experiment [1] (Well no.=7915, low concentration screen, read-out: % of control remaining) is 105%. The remaining activity at 3.75 µM in experiment [2] (Well no.=7915, high concentration screen, read-out: % of control remaining) came out at 92.5%.

With `COc1ccc(CNc2nc(N(CCO)CCO)nc3c2ncn3C(C)C)cc1` [Cdk2 Inhibitor III], the remaining activity at 1.25 µM in experiment [1] (Well no.=2416, low concentration screen, read-out: % of control remaining) turned out to be 107%. Also, the remaining activity at 3.75 µM in experiment [2] (Well no.=2416, high concentration screen, read-out: % of control remaining) is 110%.
